Laboratory results from PubChem BioAssay AID1259407 (Chemical Carcinogenesis Research Information System (CCRIS), 2018).
Calls of active or inactive are those of the source. How the calls were made is not given here.

Test system: CCRIS mutagenicity, Ames/micronucleus/aberration tests
Experiment: CCRIS mutagenicity studies
[1] = Test System: AMES SALMONELLA TYPHIMURIUM, Strain/Indicator: TA1535, Metabolic Activation: NONE, Method: PREINCUBATION
[2] = Test System: AMES SALMONELLA TYPHIMURIUM, Strain/Indicator: TA1537, Metabolic Activation: NONE, Method: PREINCUBATION
[3] = Test System: AMES SALMONELLA TYPHIMURIUM, Strain/Indicator: TA98, Metabolic Activation: NONE, Method: PREINCUBATION
[4] = Test System: AMES SALMONELLA TYPHIMURIUM, Strain/Indicator: TA98, Metabolic Activation: NONE, Method: STANDARD PLATE
[5] = Test System: AMES SALMONELLA TYPHIMURIUM, Strain/Indicator: TA98, Metabolic Activation: RAT, LIVER, S-9, AROCLOR 1254, Method: STANDARD PLATE
[6] = Test System: AMES SALMONELLA TYPHIMURIUM, Strain/Indicator: TA100, Metabolic Activation: NONE, Method: STANDARD PLATE
[7] = Test System: AMES SALMONELLA TYPHIMURIUM, Strain/Indicator: TA100, Metabolic Activation: RAT, LIVER, S-9, AROCLOR 1254, Method: STANDARD PLATE
[8] = Test System: AMES SALMONELLA TYPHIMURIUM, Strain/Indicator: TA1535, Metabolic Activation: NONE, Method: STANDARD PLATE
[9] = Test System: AMES SALMONELLA TYPHIMURIUM, Strain/Indicator: TA1535, Metabolic Activation: RAT, LIVER, S-9, AROCLOR 1254, Method: STANDARD PLATE
[10] = Test System: AMES SALMONELLA TYPHIMURIUM, Strain/Indicator: TA1537, Metabolic Activation: NONE, Method: STANDARD PLATE

For `C[n+]1c2ccccc2cc2ccccc21`, the mutagenic call [1] was “inactive; negative”, the mutagenic call (Test System: AMES SALMONELLA TYPHIMURIUM, Strain/Indicator: TA1535, Metabolic Activation: RAT, LIVER, S-9, TETRACHLOROBIPHENYL, Method: PREINCUBATION) was “inactive; negative” and the mutagenic call [2] was “inactive; negative”. The mutagenic call (Test System: AMES SALMONELLA TYPHIMURIUM, Strain/Indicator: TA1537, Metabolic Activation: RAT, LIVER, S-9, TETRACHLOROBIPHENYL, Method: PREINCUBATION) was “active; positive”, the mutagenic call (Test System: AMES SALMONELLA TYPHIMURIUM, Strain/Indicator: TA1538, Metabolic Activation: NONE, Method: PREINCUBATION) was “inactive; negative” and the mutagenic call (Test System: AMES SALMONELLA TYPHIMURIUM, Strain/Indicator: TA1538, Metabolic Activation: RAT, LIVER, S-9, TETRACHLOROBIPHENYL, Method: PREINCUBATION) was “active; positive”. For the same molecule, the mutagenic call (Test System: AMES SALMONELLA TYPHIMURIUM, Strain/Indicator: TA1978, Metabolic Activation: RAT, LIVER, S-9, TETRACHLOROBIPHENYL, Method: PREINCUBATION) was “inactive; negative”.
`CCCNCC(=O)NC(=O)C=[N+]=[N-]` was tested, and the mutagenic call (Test System: UDS RODENT CELLS, Strain/Indicator: THY INCORP (NON-S-PHASE), Metabolic Activation: NONE, Method: AUTORADIOGRAPHY) was “active; positive”.
In the case of `C=C(C)C1CC=C(CO)CC1` (configuration not stated), the mutagenic call (Test System: Mouse lymphoma, Strain/Indicator: L5178Y (tk+/tk-), Metabolic Activation: None, Method: Suspension/plate) is reported as “inactive; negative” and the mutagenic call (Test System: Mouse lymphoma, Strain/Indicator: L5178Y (tk+/tk-), Metabolic Activation: Rat, Liver, S-9, Aroclor 1254, Method: Suspension/plate) is reported as “inactive; positive. retest at same dose: negative”.
With `COc1ccc(N=[N+]([O-])c2ccc(OC)cc2)cc1` the mutagenic call (Test System: AMES SALMONELLA TYPHIMURIUM, Strain/Indicator: TA97, Metabolic Activation: HAMSTER, LIVER, S-9, AROCLOR 1254 (5%), Method: PREINCUBATION) was “inactive; negative”, the mutagenic call (Test System: AMES SALMONELLA TYPHIMURIUM, Strain/Indicator: TA97, Metabolic Activation: HAMSTER, LIVER, S-9, AROCLOR 1254 (10 OR 30%), Method: PREINCUBATION) was “active; positive” and the mutagenic call (Test System: AMES SALMONELLA TYPHIMURIUM, Strain/Indicator: TA97, Metabolic Activation: NONE, Method: PREINCUBATION) was “inactive; negative”. For the same molecule, the mutagenic call (Test System: AMES SALMONELLA TYPHIMURIUM, Strain/Indicator: TA97, Metabolic Activation: RAT, LIVER, S-9, AROCLOR 1254 (5 OR 10%), Method: PREINCUBATION) was “active; positive”, the mutagenic call (Test System: AMES SALMONELLA TYPHIMURIUM, Strain/Indicator: TA97, Metabolic Activation: RAT, LIVER, S-9, AROCLOR 1254 (30%), Method: PREINCUBATION) was “inactive; negative” and the mutagenic call (Test System: AMES SALMONELLA TYPHIMURIUM, Strain/Indicator: TA98, Metabolic Activation: HAMSTER, LIVER, S-9, AROCLOR 1254 (30%), Method: PREINCUBATION) was “inactive; negative”. The mutagenic call [3] was “inactive; negative”, the mutagenic call (Test System: AMES SALMONELLA TYPHIMURIUM, Strain/Indicator: TA98, Metabolic Activation: RAT, LIVER, S-9, AROCLOR 1254 (30%), Method: PREINCUBATION) was “inactive; negative” and the mutagenic call (Test System: AMES SALMONELLA TYPHIMURIUM, Strain/Indicator: TA100, Metabolic Activation: HAMSTER, LIVER, S-9, AROCLOR 1254 (30%), Method: PREINCUBATION) was “inactive; negative”. For the same molecule, the mutagenic call (Test System: AMES SALMONELLA TYPHIMURIUM, Strain/Indicator: TA100, Metabolic Activation: NONE, Method: PREINCUBATION) was “inactive; negative”, the mutagenic call (Test System: AMES SALMONELLA TYPHIMURIUM, Strain/Indicator: TA100, Metabolic Activation: RAT, LIVER, S-9, AROCLOR 1254 (30%), Method: PREINCUBATION) was “inactive; negative” and the mutagenic call (Test System: AMES SALMONELLA TYPHIMURIUM, Strain/Indicator: TA1535, Metabolic Activation: HAMSTER, LIVER, S-9, AROCLOR 1254 (30%), Method: PREINCUBATION) was “inactive; negative”. For the same molecule, the mutagenic call [1] was “inactive; negative”, the mutagenic call (Test System: AMES SALMONELLA TYPHIMURIUM, Strain/Indicator: TA1535, Metabolic Activation: RAT, LIVER, S-9, AROCLOR 1254 (30%), Method: PREINCUBATION) was “inactive; negative” and the mutagenic call (Test System: AMES SALMONELLA TYPHIMURIUM, Strain/Indicator: TA1537, Metabolic Activation: HAMSTER, LIVER, S-9, AROCLOR 1254 (5 OR 10%), Method: PREINCUBATION) was “inactive; negative”. For the same molecule, the mutagenic call (Test System: AMES SALMONELLA TYPHIMURIUM, Strain/Indicator: TA1537, Metabolic Activation: HAMSTER, LIVER, S-9, AROCLOR 1254 (30%), Method: PREINCUBATION) was “active; positive” and the mutagenic call [2] was “inactive; negative”.
In the case of `C[C@H](CCC(=O)O)[C@H]1CC[C@H]2[C@@H]3CC[C@@H]4C[C@H](O)CC[C@]4(C)[C@H]3C[C@@H](O)[C@]12C`, the mutagenic call (Test System: AMES SALMONELLA TYPHIMURIUM, Strain/Indicator: TA98, Metabolic Activation: NONE, Method: FLUCTUATION TEST) is reported as “inactive; negative”, the mutagenic call [3] is reported as “inactive; negative” and the mutagenic call (Test System: AMES SALMONELLA TYPHIMURIUM, Strain/Indicator: TA98, Metabolic Activation: RAT, LIVER, S-9, PCB, Method: PREINCUBATION) is reported as “inactive; negative”. The mutagenic call (Test System: AMES SALMONELLA TYPHIMURIUM, Strain/Indicator: TA100, Metabolic Activation: NONE, Method: FLUCTUATION TEST) was “inactive; negative”.
In the case of `O=S(=O)(O)c1c(N=Nc2c(O)ccc3ccccc23)ccc2ccccc12`, the mutagenic call (Test System: AMES SALMONELLA TYPHIMURIUM, Strain/Indicator: TA98, Metabolic Activation: HAMSTER, LIVER, S-9, AROCLOR 1254, Method: STANDARD PLATE) is reported as “active; positive”, the mutagenic call (Test System: AMES SALMONELLA TYPHIMURIUM, Strain/Indicator: TA98, Metabolic Activation: HAMSTER, LIVER, S-9, Method: PREINCUBATION (PRIVAL METHOD)) is reported as “inactive; negative” and the mutagenic call [4] is reported as “active; positive”. For the same molecule, the mutagenic call [5] was “inactive; negative”, the mutagenic call (Test System: AMES SALMONELLA TYPHIMURIUM, Strain/Indicator: TA100, Metabolic Activation: HAMSTER, LIVER, S-9, AROCLOR 1254, Method: STANDARD PLATE) was “active; positive” and the mutagenic call [6] was “inactive; negative”. The mutagenic call [7] was “inactive; negative”, the mutagenic call (Test System: AMES SALMONELLA TYPHIMURIUM, Strain/Indicator: TA1535, Metabolic Activation: HAMSTER, LIVER, S-9, AROCLOR 1254, Method: STANDARD PLATE) was “active; positive” and the mutagenic call [8] was “inactive; negative”. The mutagenic call [9] was “inactive; negative”, the mutagenic call [10] was “inactive; negative” and the mutagenic call (Test System: AMES SALMONELLA TYPHIMURIUM, Strain/Indicator: TA1538, Metabolic Activation: HAMSTER, LIVER, S-9, AROCLOR 1254, Method: STANDARD PLATE) was “active; positive”. The mutagenic call (Test System: AMES SALMONELLA TYPHIMURIUM, Strain/Indicator: TA1538, Metabolic Activation: NONE, Method: STANDARD PLATE) was “inactive; negative”, the mutagenic call (Test System: AMES SALMONELLA TYPHIMURIUM, Strain/Indicator: TA1538, Metabolic Activation: RAT, LIVER, S-9, AROCLOR 1254, Method: STANDARD PLATE) was “inactive; negative” and the mutagenic call (Test System: MOUSE LYMPHOMA, Strain/Indicator: L5178Y (TK+/TK-), Metabolic Activation: NONE, Method: SUSPENSION/PLATE) was “inactive; negative. reevaluation of results: inconclusive”. For the same molecule, the mutagenic call (Test System: MOUSE LYMPHOMA, Strain/Indicator: L5178Y (TK+/TK-), Metabolic Activation: RAT, LIVER, S-9, AROCLOR 1254, Method: SUSPENSION/PLATE) was “inactive; negative. reevauluation of results: negative”.
With `CC(C)=CC1C(C(=O)O)C1(C)C` (configuration not stated) the mutagenic call [4] was “inactive; negative”, the mutagenic call [5] was “inactive; negative” and the mutagenic call [6] was “inactive; negative”. For the same molecule, the mutagenic call [7] was “inactive; negative”, the mutagenic call [8] was “inactive; negative” and the mutagenic call [9] was “inactive; negative”. For the same molecule, the mutagenic call [10] was “inactive; negative”, the mutagenic call (Test System: AMES SALMONELLA TYPHIMURIUM, Strain/Indicator: TA1537, Metabolic Activation: RAT, LIVER, S-9, AROCLOR 1254, Method: STANDARD PLATE) was “inactive; negative” and the mutagenic call (Test System: E. COLI, Strain/Indicator: WP2, Metabolic Activation: NONE, Method: STANDARD PLATE) was “inactive; negative”. The mutagenic call (Test System: E. COLI, Strain/Indicator: WP2, Metabolic Activation: RAT, LIVER, S-9, AROCLOR 1254, Method: STANDARD PLATE) was “inactive; negative”.
